# Measured values: article PMC11224403, “Des-acyl ghrelin reduces alcohol intake and alcohol-induced reward in rodents” (Translational Psychiatry, 2024)
# No end group written: not given here.
# Columns and labels:
# CB1 receptor = test: Aquoscreen receptor activity assay, CB1; format: cell-based, human; settings: 60 µM JWH-018, also at 7.5 µM; luminescence
# male mice = test: Locomotor activity test, alcohol-induced stimulation and DAG per se, mice; format: in vivo, NMRI mice
# Text: (§1) Male and female Rcc Han Wistar rats (8–12 weeks old at arrival; Envigo, Horst, Netherlands) were used for the alcohol drinking and locomotor activity experiments as they drink alcohol to intoxicating levels. For in vivo microdialysis studies male Wistar rats (Charles River, Calco, Italy) were used as they display robust dopamine levels in NAc shell after alcohol injection. […] All rodents were allowed to habituate to the animal facility at least one week before they entered an experiment. […] The sample sizes of each experiment were based on previous experience in which statistical significance has been detected. The person who conducted the experiments, and analyzed the collected data was aware of the treatment allocation. Only preset exclusion criteria were used when analyzing the data obtained in attempts to exclude confounding factors in analyzing data. In the alcohol drinking experiments leaking bottles and low alcohol consumption (<3.0 g/kg for males; <3.5 g/kg for females) were preset exclusion criteria. The preset exclusion criterion in the ex vivo HPLC-EC, ELISA, and recombinant cell line experiments was contamination of the sample. Misplaced probes, technical difficulties, and damages to the surgery area were preset exclusion criteria for the in vivo microdialysis experiment. Intra-cage male aggression was the preset exclusion criterion for the locomotor activity and CPP experiments. To minimize tentative confounding factors, the order of treatments was stratified, with treatments being mixed for each animal cage and for each apparatus used as well as balancing the alcohol intake between future treatment groups.
# Alcohol was in the behavioral and neurochemical tests injected (intraperitoneally, IP) 5 min before the test.
# Locomotor activity tests were conducted in ventilated and dim-lit (4 lux) open field arenas (420 × 420 × 200 mm; Med Associates Inc; Georgia, Vermont, USA). Infra-red beams detected distance traveled, number of jumps, vertical counts, average velocity, stereotypic counts, number of inner zone entries, and time spent in the inner/outer zones of each animal.
# In the first test, after 60 min of habituation, male (n = 24) or female (n = 24) rats were injected with vehicle or DAG (0.5, 1.0, or 2.0 mg/kg). 15 min later the activity was monitored for another 60 min. In the second locomotor activity experiment, male mice (n = 32) were allowed to habituate for 60 min. After that, they were injected with vehicle or DAG (0.25, 0.5, or 1.0 mg/kg). After 15 min the activity was monitored for another 60 min.
# Therefore, male mice were (n = 32) injected with DAG (1.0 mg/kg) or vehicle 15 min before alcohol or vehicle. The activity registration started 5 min later and was recorded for an additional 60 min. Identical locomotor activity experiments were conducted in new male mice (n = 32), where a lower dose of DAG (0.5 mg/kg) was combined with alcohol.
# (§2) The data from drinking experiments were analyzed by unpaired t-test or repeated two-way ANOVA. A two-tailed unpaired t-test analyzed the ELISA, ex vivo HPLC-EC, and cFOS data. In addition, the Pearson test correlated the serum levels and the mean values of alcohol intake in rats. A one-way ANOVA with Bonferroni post hoc tests and unpaired t-test analyzed the locomotor activity and CPP data, respectively. The in vivo microdialysis experiments were evaluated by a repeated two-way ANOVA followed by the Bonferroni post hoc test.
# dopamine in NAc shell = test: In vivo microdialysis, dopamine release in NAc shell; design: species or system Wistar rats; settings: male rats (methods), alcohol 2 g/kg IP, n = 8 per group
# Text: as §1, with “groups. […]” for “groups.”
# as §2, with “In addition, the Pearson test correlated the serum levels and the mean values of alcohol intake in rats.” left out
# [1] = tested on: human transporter of dopamine (DAT); test: Transporter inhibition in recombinant cell line (neurotransmitter transporter uptake assay), DAT; format: cell-based; settings: cocaine at such concentration (12.5 µM and 6.25 µM); CHO-K1 cells, 3 h, fluorescence
# SERT = test: Transporter inhibition in recombinant cell line, SERT; format: cell-based, human; settings: cocaine at 12.5 µM and 6.25 µM (top concentration 50 µM); 3 h, fluorescence
# NET = test: Transporter inhibition in recombinant cell line, NET; format: cell-based, human; settings: cocaine at 12.5 µM and 6.25 µM (top concentration 50 µM); 3 h, fluorescence
# [2] = tested on: high alcohol-consuming mice; settings: central infusion, ref [47]; cited from earlier work
# [3] = tested on: alcohol-related responses; settings: preclinical and clinical studies, ref [6–18]; cited from earlier work
# Text: Alcohol use disorder (AUD) is a major public health problem with high morbidity and mortality. Its development is complex and the dopaminergic neurons from the ventral tegmental area (VTA) to the nucleus accumbens (NAc) have gained extra interest as they mediate alcohol-induced reward (for review see [2, 3]). Various biological systems participate in the ability of alcohol to interact with these dopamine neurons, and gut-brain peptides have been implied as important modulators (for review see [4]). One of these peptides is ghrelin (i.e., acyl-ghrelin, the acylated form of ghrelin [ ...
# [4] = tested on: memory function via hippocampal mechanisms; settings: ref [50], [51]; cited from earlier work
compound,measurement,setting,value
CCCCCn1cc(C(=O)c2cccc3ccccc23)c2ccccc21 [JWH-018],effect on target receptor CB1,CB1 receptor,full target receptor inhibition
CCO [alcohol],locomotor stimulation by alcohol,male mice; alcohol 1.75 g/kg IP (experiment with DAG 0.5 mg/kg),hyperlocomotion after alcohol (P = 0.0225)
same,locomotor stimulation by alcohol,"male mice; alcohol 1.75 g/kg IP vs vehicle, n = 8 per group (experiment with DAG 1 mg/kg)",caused a locomotor simulation (P = 0.0136)
same,"dopamine in NAc shell, alcohol vs vehicle",dopamine in NAc shell,"elevated dopamine in NAc shell (80 min P < 0.001, 160 min P = 0.0011, 180 min P = 0.0037, 200 min P < 0.0001)"
COC(=O)[C@H]1[C@@H](OC(=O)c2ccccc2)C[C@@H]2CC[C@H]1N2C [cocaine],"inhibition of DAT, share of full transporter inhibition",[1],70–80%
same,inhibition of SERT,SERT,full NET and SERT inhibition at 12.5 µM and 6.25 µM
same,inhibition of NET,NET,full NET and SERT inhibition at 12.5 µM and 6.25 µM
"LEAP2: recently discovered inverse GHSR agonist (MTPFWRGVSLRPIGASCRDDSECITRLCRKRRCSLSVAQE; ends and bridges not checked; cysteine pairing not given here; UniProt Q969E1 38-77, looked up)",alcohol intake,[2],reduces alcohol intake in high alcohol-consuming mice after its central infusion
"ghrelin (GSSFLSPEHQRVQQRKESKKPPAKLQPR; ends and bridges not checked; also: octanoylated, position not given here; UniProt Q9UBU3 24-51, looked up) [orexigenic peptide, the acylated form of ghrelin]",alcohol-related responses,[3],enhances
same,memory function,[4],enhance memory function via hippocampal mechanisms
